Results from patent US20230250131A1, “HYDROXYSTEROID COMPOUNDS” (Epirium Bio Inc., priority 2022, published 2023).
Values joined by “and” are separate entries in the source; they are usually repeats but may differ in a detail not shown here. Identical values can stand only once. Like-named read-outs stand apart in the source and are kept apart here.

Test system: PGC-1α
Assay: PGC-1α assay in differentiated C2C12 cells (ELISA-type antibody detection, absorbance at 450 nm)
Format: cell-based
Settings: each compound tested at 0.01 nM, DMSO control as 100%; for activity at 10 pM: Mus musculus, C2C12, C2C12 myotubes
Method: The compounds of Table 2 were synthesized and tested in a PGC-1α assay.
Culture conditions: DMEM containing 25 mM glucose with 10% FBS supplementation; grown at 37° C. and 5% CO2.
Assay Conditions: C2C12 cells were cultured in DMEM supplemented in 10% FBS up to 80% confluence. The cells were further trypsinized and seeded into a 96 well plate at a density of 5000 cells/well (well volume—100 μL) (Day 0). Following attachment, the cells were allowed to reach 80-90% confluence in the plate (typically 48 hours post seeding) and further differentiated using DMEM+2% Horse Serum (200 μL/well). The media was changed every day or at least every alternate day for 5 days to allow myoblasts to differentiate into myotubes. On day 7 (post seeding), the cells were treated with standards and test compounds for PGC-1α assay.
PGC-1α assay: For the detection of PGC-1α, the cells were incubated with […] primary antibody (Merck, WH10010891M3) in PBS-T containing 5% BSA at 4° C. overnight. The cells were then washed three times with PBS-T for 5 minutes and incubated with 1:1000 dilution secondary antibody (Anti-rabbit IgG, HRP-linked Antibody, Cell Signaling) in PBS-T with […] for 1 hour at RT. Cells were washed three times with PBS-T for 5 minutes The cells were incubated with 100 μl TMB substrate solution for 30 minutes and the reaction was stopped with 100 μl of 2N H2SO4. Then the plate was read at 450 nm using ELISA plate reader and absorbance recorded. […] was calculated using DMSO control as 100%. (For plate optical density calculations, a background correction was taken at 540 nm). Each compound was tested at a concentration of 0.01 nM.

[1] = average over experiments, read-out: Single point PGC1-Alpha Assay: Average Activity (%)
[2] = individual experiments (Exp. 1-3), read-out: Single point PGC1-Alpha Assay: Activity (%)

With `CCCN1C(=O)CC[C@@]2(C)C1=CCC1C2[C@@H](O)C[C@@]2(C)C1CC[C@@H]2C(C)=O` (some centres unmarked) the activity at 10 pM [1] was 109% and the activity at 10 pM [2] was 109%.
In the case of `CCN1C(=O)CC[C@@]2(C)C1=CCC1C3CCC(C4(C)OCCO4)[C@@]3(C)C[C@](C)(O)C12` (some centres unmarked), the activity at 10 pM [1] is reported as 119% and the activity at 10 pM [2] is reported as 119%.
With `[2H][C@]1(O)C[C@@]2(C)C(CC[C@@H]2C(C)=O)C2CC=C3N(CC)C(=O)CC[C@]3(C)C21` (some centres unmarked) the “Single point PGC1-Alpha Assay: Activity (%)” value (C2C12 myotubes, individual experiments (Exp. 1-3), 10 pM) was 137% and 112% and 131% and the activity at 10 pM [1] was 127%.
`CCN1C(=O)CC[C@@]2(C)C1=CCC1C2[C@@H](O)C[C@@]2(C)C1CC[C@@H]2C(C)=O` (some centres unmarked) was tested, and the activity at 10 pM [1] was 116% and the activity at 10 pM [2] was 116%.
Compound `CCN1C(=O)CC[C@@]2(C)C1=CCC1C2[C@@](C)(O)C[C@@]2(C)C1CC[C@@H]2C(C)(C)O` (some centres unmarked) has an activity at 10 pM [1] of 126% and an activity at 10 pM [2] of 126%.
Compound `CCN1C(=O)CC[C@@]2(C)C1=CCC1C2[C@@](C)(O)C[C@@]2(C)C1CC[C@@H]2C(C)=O` (some centres unmarked) has an activity at 10 pM [1] of 118% and an activity at 10 pM [2] of 118%.
Compound `CCN1C(=O)CC[C@@]2(C)C1=CCC1C2[C@@H](O)C[C@@]2(C)C1CC[C@@H]2C(C)O` (some centres unmarked) has an activity at 10 pM [1] of 94% and an activity at 10 pM [2] of 94%.
